{"source": "patent US6987093B2", "about": "(priority 2001, dated 2006)", "key": {"[1]": {"test_system": "Haemophilus influenzae 54A1100", "experiment": "Gerbil middle ear infection in vivo time kill, H. influenzae 54A1100"}, "acute otitis media": {"test_system": "acute otitis media", "experiment": "Single 30 mg/kg dose azithromycin pediatric acute otitis media trial (Study A0661015), all subjects", "description": "Craig, W. A., “Postantibiotic effects and the dosing of Macrolides, azalides, and streptogramins”, In: Zinner, S. H. et al. (editor) Expanding Indications for New Macrolides, Azalides, and Streptogramins, New York: Marel Dekker (1997), pp. 27–38.\n(§1) Children six months to twelve years were enrolled if they had symptoms and signs of acute otitis media (“AOM”) for less than four weeks and middle ear effusion by acoustic reflectometry. Symptoms necessary for enrollment included ear pain or fullness, discharge from the external auditory canal, decreased hearing or fever. On physical examination they must have had one or more of the following: bulging or marked erythema of the tympanic membrane, loss of the normal light reflex or tympanic membrane landmarks, or impaired tympanic mobility on biphasic pneumatic otoscopy. The effusion was to be documented by acoustic reflectometry with an abnormal reading of 3 or higher.\n(§2) Samples of middle ear fluid were obtained by tympanocentesis or, in the case of a perforated tympanic membrane, by swab. Middle ear fluid samples were obtained for culture at baseline. […] Children who vomited within thirty minutes of dosing were redosed.\n(§3) A phone contact occurred on study day 5 to assess for adverse events followed by visits on days 10 and 24–28, at which time detailed clinical assessments were made and adverse events were recorded. Definitions included clinical cure (complete resolution of all signs and symptoms of AOM); improvement (partial resolution of signs and symptoms); or failure (no change or worsening of signs and symptoms, or requirement for additional antibiotic therapy for AOM). Any patient considered to have failed therapy was to have a repeat tympanocentesis.\n(§4) The primary endpoint of the trial was the investigator designated cure rate at Day 24–28 for which a 95% confidence interval was computed using the normal approximation to the binomial distribution. Other endpoints analyzed included the clinical response rate by baseline pathogen at Day 24–28, the overall clinical response at Day 10, the percentage of subjects with individual signs and symptoms, as well as findings from pneumatic otoscopy and acoustic reflectometry. Only Streptococcus pneumoniae, Moraxella catarrhalis and Haemophilus influenzae were considered baseline pathogens for the purposes of these analyses.\nThis trial was an open-label, non-comparative study conducted at twenty-two sites from the United States, Costa Rica, Guatemala and Chile.\n(§5) Not all strains are equally virulent and the growth rate and kinetics of infection may influence the outcome. In addition, H. influenzae has been a difficult organism to culture from the middle ear."}, "[2]": {"experiment": "Azithromycin pulmonary tissue pharmacokinetics in mice", "type": "in vivo", "conditions": "female, CF-1, mouse, lung (pulmonary tissue), Pulmonary PK, total dose 100 mg/kg oral; for AUC(0-t): read-out: AUC(0-tlast)", "protocol": "Blood and pulmonary tissue samples were taken starting at 0.5 h post-dose and at predetermined intervals over a 96 h period. Plasma and lung samples were prepared and maintained at −70 C. […] The lower limit of quantification (LLOQ) was 50 ng/ml. […] Interassay variability was <7%. Pharmacokinetic parameters were calculated using the non-compartmental method by WinNonlin 2.1 (Scientific Consulting, Inc.)."}, "M catarrhalis": {"test_system": "M catarrhalis", "experiment": "Study 95-001 otitis media, M. catarrhalis", "type": "in vivo, human", "conditions": "3-day dosing regimen", "protocol": "Specimens for culture and susceptibility testing were obtained from the infected ear by tympanocentesis within 24 h of start of therapy. […] However, the study was evaluated using the breakpoints in the most recent set of guidelines.\nTo be a bacteriological cure, the MITT subject had to have a positive culture from the middle ear for S. pneumoniae, H influenzae, or M. catarrhalis. Eradication was defined as presumed eradication of pretreatment pathogen(s) based on signs/symptoms or unavailability of culturable material. All evaluable patients had only one of the bacterial species present at baseline. There was no bacteriological response data collected for 95–001. However, the clinical outcome by bacterial pathogen at follow-up (approximately 28 days after first visit) was collected. For patients with S. pneumoniae as the baseline pathogen, all treatment arms yielded 100% clinical cure when the investigators' evaluations that were missing are not included in the analysis. […] The comparator drug, ceftriaxone, had no failures out of 9 patients."}, "S. pneumoniae": {"test_system": "S. pneumoniae", "experiment": "Single dose azithromycin pediatric AOM trial, subjects with S. pneumoniae at baseline", "type": "in vivo, human", "conditions": "for patients cured at day 28: 30 mg/kg", "description": "as §1, §2\nSamples of middle ear fluid were split for storage at a central laboratory and cultured locally.\nas §3, §4, §5"}, "pneumococcal challenge": {"test_system": "pneumococcal challenge", "conditions": "single dose compared with all the other dose regimens; cited from earlier work"}, "H. influenzae 54A1218": {"test_system": "H. influenzae 54A1218", "experiment": "MIC determination, H. influenzae 54A1218", "type": "cell-based", "conditions": "Haemophilus influenzae", "protocol": "MIC Determinations. Streptococcus pneumoniae, S. pyogenes, E. faecalis, and H. influenzae MICs were determined using the broth microdilution procedure recommended by the NCCLS. Test trays were incubated at 35C without carbon dioxide. For testing of streptococci, the cation-adjusted Mueller-Hinton broth was supplemented with 2–3% lysed horse blood. For testing H. influenzae, freshly prepared Haemophilus Test Medium broth was used.\nBacterial Strains. • S. pneumoniae 02J1016, serotype 3, originally isolated from blood culture (strain P 4241) (MLS- and penicillin-susceptible). • S. pyogenes 02C0203, ATCC 12384, group A, type 3 (MLS-susceptible). • E. faecalis 03A1085, vancomycin susceptible clinically derived strain. • H. influenzae 54A1100, (43095 ATCC Fulghum strain) non-serotype B strain originally isolated from otitis media (macrolide and penicillin susceptible). • H. influenzae 54A1218, clinically derived non-serotype B strain (macrolide-susceptible, penicillin-resistant, TEM-1 beta-lactamase)."}, "[3]": {"conditions": "33 mg/kg, 3 days of dosing, 33.3 mg/kg/dose"}, "[4]": {"conditions": "1 day of dosing, 100 mg/kg/dose"}, "[5]": {"conditions": "2 days of dosing, 50 mg/kg/dose"}}, "note": "Where “and” joins values, the source holds several entries; their conditions need not be identical. Equal entries are not always repeated. Where two headings read alike, the source gives them in different places."}
{"compound": "CC[C@H]1OC(=O)[C@H](C)[C@@H](O[C@H]2C[C@@](C)(OC)[C@@H](O)[C@H](C)O2)[C@H](C)[C@@H](O[C@@H]2O[C@H](C)C[C@H](N(C)C)[C@H]2O)[C@](C)(O)C[C@@H](C)CN(C)[C@H](C)[C@@H](O)[C@]1(C)O", "note": "[Azithromycin, 9a-aza-9a-methyl-9-deoxo-9a-homoerythromycin A]", "values": [{"measurement": "Recoverable CFU (Bulla) [Log10.Geo.Mean] (SEM)", "setting": "[1]; 66.6 mg/kg/day oral Q.D. [3 days], 48 hours post-infection", "result": "5.8817 (0.44) log of cfu-bulla wash/ml and 5.8817 log of cfu-bulla wash/ml"}, {"measurement": "Recoverable CFU (Bulla) [Log10.Geo.Mean] (SEM)", "setting": "[1]; 66.6 mg/kg/day oral Q.D. [3 days], 72 hours post-infection", "result": "4.5981 (0.14) log of cfu-bulla wash/ml and 4.5981 log of cfu-bulla wash/ml"}, {"measurement": "Recoverable CFU (Bulla) [Log10.Geo.Mean] (SEM)", "setting": "[1]; 66.6 mg/kg/day oral Q.D. [3 days], 96 hours post-infection", "result": "6.1520 (0.75) log of cfu-bulla wash/ml and 6.1520 log of cfu-bulla wash/ml"}, {"measurement": "Recoverable CFU (Bulla) [Log10.Geo.Mean] (SEM)", "setting": "[1]; 100 mg/kg/day oral Q.D. [2 days], 48 hours post-infection", "result": "5.7572 (0.54) log of cfu-bulla wash/ml and 5.7572 log of cfu-bulla wash/ml"}, {"measurement": "Recoverable CFU (Bulla) [Log10.Geo.Mean] (SEM)", "setting": "[1]; 100 mg/kg/day oral Q.D. [2 days], 72 hours post-infection", "result": "<2.4580 (0.46) log of cfu-bulla wash/ml and <2.4580 log of cfu-bulla wash/ml"}, {"measurement": "Recoverable CFU (Bulla) [Log10.Geo.Mean] (SEM)", "setting": "[1]; 100 mg/kg/day oral Q.D. [2 days], 96 hours post-infection", "result": "<3.1112 (1.11) log of cfu-bulla wash/ml and <3.1112 log of cfu-bulla wash/ml"}, {"measurement": "Recoverable CFU (Bulla) [Log10.Geo.Mean] (SEM)", "setting": "[1]; 200 mg/kg/day oral Q.D. [1 day], 48 hours post-infection", "result": "<2.0000 log of cfu-bulla wash/ml"}, {"measurement": "Recoverable CFU (Bulla) [Log10.Geo.Mean] (SEM)", "setting": "[1]; 200 mg/kg/day oral Q.D. [1 day], 72 hours post-infection", "result": "<2.0000 log of cfu-bulla wash/ml"}, {"measurement": "Recoverable CFU (Bulla) [Log10.Geo.Mean] (SEM)", "setting": "[1]; 200 mg/kg/day oral Q.D. [1 day], 96 hours post-infection", "result": "<2.0000 log of cfu-bulla wash/ml"}, {"measurement": "eradication, test subjects", "setting": "[1]; Q.D. 2 (100 mg/kg on day 1 and 2), at 72 and at 96 hours post-infection", "result": "4/5"}, {"measurement": "eradication in any test subject", "setting": "[1]; Q.D. 3 (66.6 mg/kg on day 1, 2 and 3), 72 and 96 hours post-infection", "result": "not observed"}, {"measurement": "children with acoustic reflectometry scores improved from baseline", "setting": "acute otitis media; by day 24–28", "result": 83, "unit": "%"}, {"measurement": "children with completely normal acoustic reflectometry readings", "setting": "acute otitis media; by day 24–28", "result": 53, "unit": "%"}, {"measurement": "patients with complete resolution of baseline symptoms", "setting": "acute otitis media; by day 28", "result": "Ninety-two"}, {"measurement": "patients with impaired tympanic membrane motility", "setting": "acute otitis media; day 10 (93% at baseline)", "result": 27, "unit": "%"}, {"measurement": "subjects with other objective signs of tympanic membrane disease", "setting": "acute otitis media; day 24–28", "result": "less than 10%"}, {"measurement": "patients with impaired tympanic membrane motility", "setting": "acute otitis media; day 24–28 (93% at baseline)", "result": 12, "unit": "%"}, {"measurement": "adverse event diarrhea", "setting": "acute otitis media; single 30 mg/kg oral dose", "result": 3, "unit": "%"}, {"measurement": "adverse event vomiting", "setting": "acute otitis media; single 30 mg/kg oral dose", "result": 6, "unit": "%"}, {"measurement": "Cmax", "setting": "[2]; [3]", "result": 28000, "unit": "ng/mL"}, {"measurement": "Tmax", "setting": "[2]; [3]", "result": 12, "unit": "h"}, {"measurement": "AUC(0-t)", "setting": "[2]; [3]", "result": 1050, "unit": "µg·h/mL"}, {"measurement": "Cmax", "setting": "[2]; [4]", "result": 40000, "unit": "ng/mL"}, {"measurement": "Tmax", "setting": "[2]; [4]", "result": 4, "unit": "h"}, {"measurement": "AUC(0-t)", "setting": "[2]; [4]", "result": 970, "unit": "µg·h/mL"}, {"measurement": "Cmax", "setting": "[2]; [5]", "result": 31000, "unit": "ng/mL"}, {"measurement": "Tmax", "setting": "[2]; [5]", "result": 28, "unit": "h"}, {"measurement": "AUC(0-t)", "setting": "[2]; [5]", "result": 870, "unit": "µg·h/mL"}, {"measurement": "outcome at follow-up of the two M catarrhalis isolates", "setting": "M catarrhalis", "result": "presumed bacteriological cures"}, {"measurement": "clinical cure rate versus susceptible S. pneumoniae isolates", "setting": "S. pneumoniae; MICs≦0.25 μg/ml", "result": 92.5, "unit": "%"}, {"measurement": "strains clinically cured", "setting": "S. pneumoniae; human, in vivo", "result": 40, "unit": "%"}, {"measurement": "patients cured at day 28", "setting": "S. pneumoniae; human, in vivo", "result": "two of these five"}, {"measurement": "Clinical cure at day 28, number of children", "setting": "S. pneumoniae; nine children with penicillin resistant S. pneumoniae isolates (MIC≧2 μg/ml)", "result": 6}, {"measurement": "clinical cure rate versus resistant S. pneumoniae isolates", "setting": "S. pneumoniae; resistant isolates", "result": 66.7, "unit": "%"}, {"measurement": "patients cured at day 28", "setting": "S. pneumoniae; seven patients with mef A isolates (MIC 8 μg/ml), single 30 mg/kg dose", "result": "Six of these seven and 6/7"}, {"measurement": "survival versus a pneumococcal challenge", "setting": "pneumococcal challenge", "result": "significantly increased survival"}, {"measurement": "MIC", "setting": "H. influenzae 54A1218", "result": 0.78, "unit": "µg/mL"}]}
